Experimental data reported in patent publication US20200370012A1, “METHODS OF MAKING CHIMERIC ANTIGEN RECEPTOR-EXPRESSING CELLS” (Novartis AG, priority 2017, published 2020).

Columns and labels:
CTL019 cells = experiment: Serial re-stimulation assay with irradiated K562-CD19 cells: CTL019 cells made with or without Stattic or recombinant IL-6 (cell numbers and viability); assay type: cell-based, human; conditions: exogenous IL-6 added to culture media during manufacturing of CTL019 cells; FIG. 9
Protocol: FIGS. 8A-8C show inhibition of the STAT3 pathway in CAR T cells. […] CAR-specific stimulations were performed in the presence or absence of 5 μM Stattic, a small molecule inhibitor of STAT3 activation. […] CAR T cells from this representative subject were then serially re-stimulated with K562 cells engineered to express CD19 on days 0, 7 and 12 of the culture, as indicated by the arrows.
CTL019 cells from this representative subject were then serially re-stimulated with K562 cells engineered to express CD19 or mesothelin (negative control) on days 0, 7, and 12 of the culture, as indicted by the arrows.
CTL019 cells from CLL patient infusion products were thawed and stimulated with anti-idiotypic antibody-coated beads or mock beads. For some experiments, cells were stimulated for 10 minutes with recombinant human IL-6 (Miltenyi Biotec.) at a final concentration of 10 ng/mL. In cell subset evaluation experiments, populations of interest were stained for surface markers and sorted on a FACSAria II cell sorter (BD Biosciences) prior to acute stimulation with IL-6. […] The ability of Stattic to inhibit STAT3 signaling was assessed by Phosflow staining as described above. […] Absolute cell numbers and viability were simultaneously measured during the course of CAR T cell expansion using the Luna automated cell counter (Logos Biosystems).

STAT3 (pY705) = molecular target: T1, STAT3 (pY705) (Homo sapiens, UniProt P40763); experiment: Measurement of pSTAT3 by Phosflow intracellular staining; assay type: cell-based
T1 construct: CTL019 cells from CLL patient infusion products were thawed and stimulated with anti-idiotypic antibody-coated beads or mock beads; endogenous in cells; host or cells: CTL019 (anti-CD19 4-1BB/CD3zeta CAR) T cells made from autologous T cells of CLL patients; in some experiments FACS-sorted CD8+ T cell subsets
Protocol: FIGS. 7A-7D show IL-6/STAT3 pathway enrichment in CAR T cells. […] Graphs show mean with s.e.m. […] Bars represent the mean and s.e.m. […] Pooled data from patients with highly functional (CR, n=3; PRTD, n=2) versus poorly functional (PR, n=3; NR, n=11) CAR T cells is shown in the box plots (right panel). Whiskers represent min. to max.; boxes represent 25-75 percentiles; the middle line indicates the median. The change in fluorescence intensity (MFI) was calculated by subtracting the […].
FIGS. 11A-11B show levels of pSTAT3 in CD27+ PD-1− CD8 T cells in response to IL-6. […] Summary of IL-6-induced pSTAT3 levels in CD8+ T cell subsets defined by CD27 and PD-1 expression from n=4 different subjects is shown in the right panel. The change in mean fluorescence intensity (AMFI) was determined by subtracting the […].
CTL019 cells from CLL patient infusion products were thawed and stimulated with anti-idiotypic antibody-coated beads or mock beads. […] The ability of Stattic to inhibit STAT3 signaling was assessed by Phosflow staining as described above. […] Absolute cell numbers and viability were simultaneously measured during the course of CAR T cell expansion using the Luna automated cell counter (Logos Biosystems).

Anti-CD19BBζ CAR T cells = experiment: Metabolic modulation of CAR T cells: differentiation phenotype by flow cytometry after 9 days of culture with or without 2-DG; assay type: cell-based, human; conditions: FIG. 4 and FIG. 5
Protocol: The following T-cell subsets are shown: naïve-like (CCR7+CD45RO−); central memory (CCR7+CD45RO+); effector memory (CCR7−CD45RO+); and effector (CCR7−CD45RO−). Anti-CD19BBζ CAR T cells were generated as in the presence or absence of the glycolysis inhibitor 2-deoxyglucose (2-DG; Sigma-Aldrich). Following 9 days of culture, the differentiation phenotype of these cells was determined by flow cytometry. CAR+T-cells were sorted on the FACSAria II cell sorter (BD Biosciences) and combined 1:1 with irradiated K562 cells engineered to express CD19 (K562-CD19). CTL019cells were re-stimulated ×3 with K562-CD19 targets. During the proliferation assay, absolute cell counts were obtained using the Luna automated cell counter (Logos Biosystems).

T1 sequence (P40763 whole entry, the tested form may be a part): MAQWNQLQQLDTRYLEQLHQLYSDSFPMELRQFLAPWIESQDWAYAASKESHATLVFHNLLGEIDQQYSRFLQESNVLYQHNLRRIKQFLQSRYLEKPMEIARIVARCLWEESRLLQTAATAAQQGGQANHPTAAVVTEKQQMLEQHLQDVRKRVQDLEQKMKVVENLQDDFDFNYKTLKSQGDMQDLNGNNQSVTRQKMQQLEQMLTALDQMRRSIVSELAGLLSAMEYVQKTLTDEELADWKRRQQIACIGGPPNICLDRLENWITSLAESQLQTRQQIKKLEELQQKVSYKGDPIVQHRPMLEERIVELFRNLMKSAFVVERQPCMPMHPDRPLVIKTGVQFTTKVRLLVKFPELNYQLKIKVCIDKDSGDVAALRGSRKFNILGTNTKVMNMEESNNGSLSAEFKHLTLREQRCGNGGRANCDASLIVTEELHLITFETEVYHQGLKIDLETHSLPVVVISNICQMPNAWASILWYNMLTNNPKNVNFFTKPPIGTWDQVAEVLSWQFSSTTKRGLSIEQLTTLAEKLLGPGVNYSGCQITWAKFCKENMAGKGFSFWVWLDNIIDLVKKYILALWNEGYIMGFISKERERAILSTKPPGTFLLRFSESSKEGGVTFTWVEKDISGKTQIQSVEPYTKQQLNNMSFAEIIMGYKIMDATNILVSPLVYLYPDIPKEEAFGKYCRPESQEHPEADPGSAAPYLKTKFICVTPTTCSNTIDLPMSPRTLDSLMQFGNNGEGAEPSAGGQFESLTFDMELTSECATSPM

pSTAT3 activity (STAT3 (pY705); exogenous IL-6 added to culture media during manufacturing of CTL019 cells)	pSTAT3 in response to IL-6 stimulation (STAT3 (pY705); sorted CD27+PD-1− CD8+ subset, recombinant IL-6 10 ng/ml, FIG. 11A)	Compound	absolute numbers of CAR T cells following repeated stimulation with CD19-expressing tumor targets (CTL019 cells)	expansion capacity following repeated stimulation with CD19-expressing tumor targets (CTL019 cells)	effector differentiation (Anti-CD19BBζ CAR T cells; CAR T cells cultured 9 days in presence vs absence of 2-DG)	frequencies of CAR T cells with a central memory phenotype (Anti-CD19BBζ CAR T cells; CCR7+CD45RO+, cultured 9 days in presence vs absence of 2-DG)
Increasing	upregulates	IL-6: recombinant human IL-6 (Miltenyi Biotec.), a Stat3 activator	elevated	elevated		
		OC[C@H]1O[C@H](O)C[C@@H](O)[C@@H]1O [2-DG, (4R,5S,6R)-6-(hydroxymethyl)oxane-2,4,5-triol]			decreased	increased
